Measured values published in the supplement of paper PMC10307832.

Experiments:
Test in all cases: relative viability (nuclei count vs DMSO), 5 days (fraction); higher = more cells survive
[1] = compound: CC(C)N(CCCNC(=O)Nc1ccc(C(C)(C)C)cc1)C[C@H]1O[C@@H](n2ccc3c(N)ncnc32)[C@H](O)[C@@H]1O + CS(=O)(=O)CCNCc1ccc(-c2ccc3ncnc(Nc4ccc(OCc5cccc(F)c5)c(Cl)c4)c3c2)o1 [Lapatinib] (partner 2 µM)
Method in brief: (§1)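 Lung cancer cell lines in 1536-well plates were dosed by pin tool the day after seeding, either with one drug alone or with a fixed anchor-drug dose plus five library-drug doses (not always all listed) in √10 steps. After 5 days, cells were fixed and their nuclei stained in one step (final 0.05% Triton X-100, 1% formaldehyde, 1 ug/ml Hoechst), then counted on 4× images. Relative viability is the nuclei count in treated wells divided by that in vehicle wells. Values are medians of duplicate plates.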

[2] = compound: CC(C)N(CCCNC(=O)Nc1ccc(C(C)(C)C)cc1)C[C@H]1O[C@@H](n2ccc3c(N)ncnc32)[C@H](O)[C@@H]1O + Nc1nc2[nH]cc(CCc3ccc(C(=O)N[C@@H](CCC(=O)O)C(=O)O)cc3)c2c(=O)[nH]1 [Pemetrexed] (partner 0.2 µM)
Method in brief: as §1

Shikonin + Foretinib = compound: CC(C)=CC[C@@H](O)C1=CC(=O)c2c(O)ccc(O)c2C1=O [Shikonin] + COc1cc2c(Oc3ccc(NC(=O)C4(C(=O)Nc5ccc(F)cc5)CC4)cc3F)ccnc2cc1OCCCN1CCOCC1 [Foretinib] (partner 0.25 µM)
Method in brief: as §1

[3] = compound: CC(C)N(CCCNC(=O)Nc1ccc(C(C)(C)C)cc1)C[C@H]1O[C@@H](n2ccc3c(N)ncnc32)[C@H](O)[C@@H]1O + COc1cccc2cc(-c3nc([C@H]4CC[C@H](C(=O)O)CC4)n4ncnc(N)c34)[nH]c12 [OSI-027] (partner 0.5 µM)
Method in brief: as §1

Cell Line | relative viability ([1]; first compound 0.08 µM) | relative viability ([1]; first compound 0.253 µM) | relative viability ([1]; first compound 0.8 µM) | relative viability ([1]; first compound 2.53 µM) | relative viability ([1]; first compound 8 µM) | relative viability ([2]; first compound 0.08 µM) | relative viability ([2]; first compound 0.253 µM) | relative viability ([2]; first compound 2.53 µM) | relative viability ([2]; first compound 8 µM) | relative viability (Shikonin + Foretinib; first compound 0.01 µM) | relative viability (Shikonin + Foretinib; first compound 0.1 µM) | relative viability (Shikonin + Foretinib; first compound 0.3162 µM) | relative viability (Shikonin + Foretinib; first compound 1 µM) | relative viability ([3]; first compound 0.08 µM) | relative viability ([3]; first compound 0.253 µM) | relative viability ([3]; first compound 0.8 µM) | relative viability ([3]; first compound 2.53 µM) | relative viability ([3]; first compound 8 µM) | relative viability ([2]; first compound 0.8 µM)
201T | 0.99 | 1.07 | 0.863 | 1.02 | 1.01 | 0.334 | 0.368 | 0.304 | 0.351 | 1.07 | 1.15 | 1.19 | 1.25 | 0.417 | 0.864 | 0.624 | 0.77 | 0.903 | –
A549 | 0.908 | 1.01 | 1.29 | 0.93 | 1.01 | – | – | – | – | 1.05 | 1.03 | 1.16 | 1.11 | – | – | – | – | – | –
A-427 | 1.01 | 0.99 | 1.05 | 1.04 | 1 | 1.05 | 0.998 | 0.929 | 0.99 | 1.16 | 1.26 | 1.21 | 1.16 | 0.439 | 0.492 | 0.535 | 0.502 | 0.478 | 0.937
ABC-1 | 1.31 | 0.936 | 0.847 | 1.13 | 1.12 | – | – | – | – | 1.14 | 0.993 | 0.927 | 1.04 | 0.497 | 0.588 | – | 0.565 | 0.529 | –
BEN | 0.71 | 0.67 | 0.71 | 0.628 | 0.625 | 0.705 | 0.646 | 0.694 | 0.72 | 0.576 | 0.744 | 0.839 | 0.848 | 0.301 | 0.277 | 0.298 | 0.294 | 0.275 | 0.762
CAL-12T | 0.61 | 0.477 | 0.572 | 0.625 | 0.652 | 1.21 | 1.16 | 0.983 | 1.05 | 1.02 | 1.08 | 1.23 | 1.16 | 0.603 | 0.498 | 0.635 | 0.579 | 0.53 | 1.1
COR-L23 | 0.955 | 0.929 | 0.888 | 1.01 | 1.04 | 0.188 | 0.203 | 0.2 | 0.21 | 1.05 | 0.813 | 1.03 | 0.988 | 0.758 | 0.739 | 0.697 | 0.735 | 0.689 | 0.202
COR-L 105 | 0.365 | 0.317 | 0.417 | 0.403 | 0.355 | 1.09 | 1.01 | 1.11 | 0.956 | 1.44 | 1.31 | 1.34 | 1.33 | 0.682 | 0.581 | 0.664 | 0.427 | 0.648 | 1.18
Calu-6 | 1.05 | 1.09 | 1.09 | 1.12 | 1.09 | – | – | – | – | 0.962 | 0.904 | 1.02 | 0.885 | – | – | – | – | – | –
ChaGo-K-1 | – | – | – | – | – | 0.261 | 0.256 | 0.258 | 0.268 | 0.97 | 1.06 | 1.05 | 0.943 | 0.525 | 0.616 | 0.471 | 0.628 | 0.585 | 0.259
